Type in all cases: functional, organism-based
The subject of test [1] is Pseudomonas aeruginosa. The experiment in a line: Tested for broad spectrum antibacterial activity against Pseudomonas aeruginosa; A - active compound.
Test [2] concerns Escherichia coli. The experiment in a line: Antibacterial activity against Escherichia coli 851 at 16 ug/mL concentration; A - low activity was observed.
Test [3] deals with Streptococcus pneumoniae. The test is described as follows: Antibacterial activity against Streptococcus pneumoniae at a concentration of 2 ug/mL; A - weak activity was observed.
Test [4] has as its system Staphylococcus aureus. The test is described as follows: Antibacterial activity against resistant strains of Staphylococcus aureus at 2-32 ug/mL concentration; A - weak activity was observed.
The test system of test [5] is Pseudomonas aeruginosa. The test is described as follows: Antibacterial activity against Pseudomonas aeruginosa at concentrations >32 ug/mL; inactive.
In test [6] the test system is Escherichia coli. The test is described as follows: Antibacterial activity against Escherichia coli 1850-WT strain at 16 ug/mL concentration; A - low activity was observed.
The subject of test [7] is Staphylococcus aureus. The test is described as follows: Antibacterial activity against sensitive strains of Staphylococcus aureus at 2-32 ug/mL concentration; A - weak activity was observed.
Test [8] concerns Escherichia coli. The test is described as follows: Antibacterial activity against Escherichia coli 1919-PM/TEM-1 strains at a concentration of at 16 ug/mL concentration; A - low activity was observed.
For test [9], the system named is Staphylococcus epidermidis. The experiment in a line: Antibacterial activity against Staphylococcus epidermidis at 2 ug/mL concentration; A - weak activity was observed.
Test [10] has as its system Escherichia coli. The experiment in a line: Antibacterial activity against Escherichia coli 1852-PM strain at 16 ug/mL concentration; A - low activity was observed.

Each structure is given as a SMILES string. Active and inactive are the calls of the source. The calls are words filed in the database; no cut-off is given here.

Take `C[C@@H](O)[C@H]1C(=O)N2C(C(=O)O)=C(SCCN)C[C@H]12`: the Activity entry in [1] is given as “Low activity”.
On the same count and under the same terms, the value for `C[C@@H](O)[C@H]1C(=O)N2C(C(=O)O)=C(S[C@@H]3CN[C@H](C(=O)N(C)C)C3)[C@H](C)[C@H]12` was “Low activity”.
With `C[C@@H](O)[C@H]1C(=O)N2C(C(=O)O)=C3SCC[C@H]3[C@H]12`, the Activity result in [2], in test [3], in test [4], in [6], in test [7] and in test [8] was “Low activity” throughout. The Activity result in test [9] and in [10] was “Low activity” each time. Further, the result in [5] was inactive.

For the origin of these results see ChEMBL document CHEMBL1128163, “Synthesis and biological evaluation of 4-heterotribactams” (Bioorg Med Chem Lett, 1995).
